Assay results published in ChEMBL document CHEMBL2429821, “A Casein kinase 1/Checkpoint kinase 1 pyrazolo-pyridine protein kinase inhibitor as novel activator of the p53 pathway” (Bioorg Med Chem Lett, 2013).
The source made the active and inactive calls. No cut-off for these calls is given here.

Columns and labels:
[1] = target: T1, Casein kinase I/MDM2 (Homo sapiens) (UniProt Q00987+P48729); assay: Inhibition of CK1-MDM2 complex in human A375 cells assessed as increase in […] protein level at 0.2 to 40 uM after 24 hrs by immunoblotting analysis; format: cell-based; settings: A-375
T1 sequence (P48729 whole entry, looked up): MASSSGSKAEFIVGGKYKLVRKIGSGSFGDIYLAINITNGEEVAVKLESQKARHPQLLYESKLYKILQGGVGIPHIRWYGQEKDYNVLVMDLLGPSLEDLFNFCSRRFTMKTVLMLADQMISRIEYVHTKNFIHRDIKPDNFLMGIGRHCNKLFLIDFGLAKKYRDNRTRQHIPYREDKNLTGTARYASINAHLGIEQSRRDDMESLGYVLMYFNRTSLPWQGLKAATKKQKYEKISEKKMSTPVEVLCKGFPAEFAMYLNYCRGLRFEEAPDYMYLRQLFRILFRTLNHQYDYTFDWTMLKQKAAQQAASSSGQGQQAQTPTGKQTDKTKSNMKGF
T1 sequence (Q00987 whole entry, looked up): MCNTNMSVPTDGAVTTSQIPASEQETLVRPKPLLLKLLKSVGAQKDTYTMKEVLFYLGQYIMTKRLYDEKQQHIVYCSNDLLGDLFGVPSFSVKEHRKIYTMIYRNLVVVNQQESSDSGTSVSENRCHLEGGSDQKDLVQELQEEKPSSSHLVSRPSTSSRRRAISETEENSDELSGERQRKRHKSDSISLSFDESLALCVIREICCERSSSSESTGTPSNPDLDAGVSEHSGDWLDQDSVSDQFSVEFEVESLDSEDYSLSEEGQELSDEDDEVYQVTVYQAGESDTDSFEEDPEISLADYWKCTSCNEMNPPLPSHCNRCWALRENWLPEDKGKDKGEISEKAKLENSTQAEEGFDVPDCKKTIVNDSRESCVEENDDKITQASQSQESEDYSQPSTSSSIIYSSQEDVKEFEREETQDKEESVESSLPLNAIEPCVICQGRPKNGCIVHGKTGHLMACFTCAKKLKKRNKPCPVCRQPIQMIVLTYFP

[2] = target: T1, Casein kinase I/MDM2 (Homo sapiens); assay: Inhibition of CK1-MDM2 complex in human A375 cells assessed as effect on p21 protein level at 0.2 to 40 uM after 24 hrs by immunoblotting analysis; format: cell-based; settings: A-375
[3] = target: T1, Casein kinase I/MDM2 (Homo sapiens); assay: Inhibition of CK1-MDM2 complex in human A375 cells assessed as increase in p53 protein level at 0.2 to 40 uM after 24 hrs by immunoblotting analysis; format: cell-based; settings: A-375
[4] = target: T1, Casein kinase I/MDM2 (Homo sapiens); assay: Inhibition of CK1-MDM2 complex in human A375 cells assessed as decrease in MDM2 protein level at 0.2 to 40 uM after 24 hrs by immunoblotting analysis; format: cell-based; settings: A-375
[5] = target: Dual specificity tyrosine-phosphorylation-regulated kinase 1A (Rattus norvegicus) (UniProt Q63470); assay: Inhibition of rat DYRK1alpha assessed as residual activity at 25 uM relative to control
[6] = target: Rho-associated protein kinase 2 (Rattus norvegicus) (UniProt Q62868); assay: Inhibition of rat ROCK2 assessed as residual activity at 25 uM relative to control
Rho-associated protein kinase 2 (Rattus norvegicus), sequence (Q62868 whole entry, looked up): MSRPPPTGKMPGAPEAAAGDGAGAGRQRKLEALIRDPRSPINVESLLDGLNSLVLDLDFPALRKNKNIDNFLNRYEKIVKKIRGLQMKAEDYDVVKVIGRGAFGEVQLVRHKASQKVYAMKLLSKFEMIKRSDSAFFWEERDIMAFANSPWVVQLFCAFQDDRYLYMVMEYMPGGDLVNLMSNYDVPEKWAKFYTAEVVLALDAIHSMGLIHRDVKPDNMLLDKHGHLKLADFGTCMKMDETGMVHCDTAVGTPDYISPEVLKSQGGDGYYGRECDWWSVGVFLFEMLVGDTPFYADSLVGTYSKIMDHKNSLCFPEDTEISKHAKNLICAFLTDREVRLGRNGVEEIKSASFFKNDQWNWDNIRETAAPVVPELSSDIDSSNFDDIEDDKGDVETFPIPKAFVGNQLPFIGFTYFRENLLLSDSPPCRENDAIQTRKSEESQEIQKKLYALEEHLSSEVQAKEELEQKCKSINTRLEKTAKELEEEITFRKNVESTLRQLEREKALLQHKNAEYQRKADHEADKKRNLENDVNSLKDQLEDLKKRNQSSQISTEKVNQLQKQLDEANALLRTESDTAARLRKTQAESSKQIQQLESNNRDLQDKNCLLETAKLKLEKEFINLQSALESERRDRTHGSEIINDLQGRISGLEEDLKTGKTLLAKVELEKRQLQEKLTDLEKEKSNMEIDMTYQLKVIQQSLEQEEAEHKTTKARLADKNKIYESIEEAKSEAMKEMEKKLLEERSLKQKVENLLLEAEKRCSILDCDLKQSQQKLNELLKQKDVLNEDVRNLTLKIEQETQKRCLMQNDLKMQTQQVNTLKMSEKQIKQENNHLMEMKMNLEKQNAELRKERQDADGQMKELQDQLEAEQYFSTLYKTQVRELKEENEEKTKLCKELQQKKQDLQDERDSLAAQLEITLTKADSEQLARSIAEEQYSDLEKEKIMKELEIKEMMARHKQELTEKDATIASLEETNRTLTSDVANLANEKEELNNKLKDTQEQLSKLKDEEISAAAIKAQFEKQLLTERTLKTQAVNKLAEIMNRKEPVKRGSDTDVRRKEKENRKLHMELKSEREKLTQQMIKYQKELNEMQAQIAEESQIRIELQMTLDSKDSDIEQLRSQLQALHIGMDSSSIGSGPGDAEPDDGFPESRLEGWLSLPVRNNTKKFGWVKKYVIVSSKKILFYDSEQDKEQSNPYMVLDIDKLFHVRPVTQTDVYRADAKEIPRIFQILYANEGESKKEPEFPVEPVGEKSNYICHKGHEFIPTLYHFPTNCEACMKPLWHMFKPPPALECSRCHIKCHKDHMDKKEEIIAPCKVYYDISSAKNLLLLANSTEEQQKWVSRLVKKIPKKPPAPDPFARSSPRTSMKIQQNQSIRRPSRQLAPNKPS

[7] = species on record: Bos taurus; assay: Inhibition of cow PKA assessed as residual activity at 25 uM relative to control
[8] = species on record: Oryctolagus cuniculus; assay: Inhibition of rabbit MKK1 assessed as residual activity at 25 uM relative to control
[9] = target: Cyclin-dependent kinase 2 (Homo sapiens) (UniProt P24941); assay: Inhibition of human CDK2 assessed as residual activity at 25 uM relative to control
[10] = target: Proto-oncogene tyrosine-protein kinase Src (Homo sapiens) (UniProt P12931); assay: Inhibition of human SRC assessed as residual activity at 25 uM relative to control
Proto-oncogene tyrosine-protein kinase Src (Homo sapiens), sequence (P12931 2-536 limits assumed): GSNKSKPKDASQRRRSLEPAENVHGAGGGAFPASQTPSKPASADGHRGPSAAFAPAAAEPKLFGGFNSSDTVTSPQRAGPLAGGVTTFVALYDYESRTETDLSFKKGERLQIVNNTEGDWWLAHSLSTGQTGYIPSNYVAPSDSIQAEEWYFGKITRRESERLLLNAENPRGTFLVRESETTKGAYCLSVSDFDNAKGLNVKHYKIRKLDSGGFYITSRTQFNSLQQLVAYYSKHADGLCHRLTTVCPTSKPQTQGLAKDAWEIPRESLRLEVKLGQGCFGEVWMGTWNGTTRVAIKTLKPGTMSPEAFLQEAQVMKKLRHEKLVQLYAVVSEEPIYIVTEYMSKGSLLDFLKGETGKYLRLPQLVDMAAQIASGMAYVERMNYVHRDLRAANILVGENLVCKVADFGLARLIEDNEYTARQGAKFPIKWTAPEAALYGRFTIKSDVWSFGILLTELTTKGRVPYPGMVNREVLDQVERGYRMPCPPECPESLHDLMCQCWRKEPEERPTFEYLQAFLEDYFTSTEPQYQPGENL

[11] = target: Casein kinase I isoform delta (Rattus norvegicus) (UniProt Q06486); assay: Inhibition of rat CK1delta assessed as residual activity at 25 uM relative to control
Casein kinase I isoform delta (Rattus norvegicus), sequence (Q06486 whole entry, looked up, canonical isoform): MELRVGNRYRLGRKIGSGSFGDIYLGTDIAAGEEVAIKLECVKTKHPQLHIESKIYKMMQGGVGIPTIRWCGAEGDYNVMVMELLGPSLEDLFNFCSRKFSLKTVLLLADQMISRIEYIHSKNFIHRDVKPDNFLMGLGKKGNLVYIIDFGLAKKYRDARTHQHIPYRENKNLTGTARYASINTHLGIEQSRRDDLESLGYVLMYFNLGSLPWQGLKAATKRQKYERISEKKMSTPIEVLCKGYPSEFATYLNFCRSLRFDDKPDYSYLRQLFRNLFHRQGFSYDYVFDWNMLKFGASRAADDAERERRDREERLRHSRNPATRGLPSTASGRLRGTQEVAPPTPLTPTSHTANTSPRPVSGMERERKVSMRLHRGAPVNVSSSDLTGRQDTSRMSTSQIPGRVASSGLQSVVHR

[12] = species on record: Rattus norvegicus; assay: Inhibition of rat AMPK assessed as residual activity at 25 uM relative to control
[13] = target: Casein kinase I isoform delta (Rattus norvegicus) (UniProt Q06486); assay: Inhibition of rat CK1delta assessed as residual activity at 10 uM relative to control
[14] = tested on: A-375; assay: Cell cycle arrest in human A375 cells assessed as accumulation at G2-M phase at 40 uM after 48 hrs by FACS flow cytometric analysis (reference value: 17.3%); format: functional
[15] = target: Cyclin-dependent kinase 2 (Homo sapiens) (UniProt P24941); assay: Inhibition of human CDK2 assessed as residual activity at 10 uM relative to control
[16] = tested on: A-375; assay: Cell cycle arrest in human A375 cells assessed as accumulation at G2-M phase at 10 uM after 48 hrs by FACS flow cytometric analysis (reference value: 17.3%); format: functional
[17] = species on record: Oryctolagus cuniculus; assay: Inhibition of rabbit MKK1 assessed as residual activity at 10 uM relative to control
[18] = target: T2, Serine/threonine-protein kinase Chk1 (Homo sapiens, UniProt O14757); assay: Inhibition of human CHK1 in presence of 20 uM ATP
T2 sequence (O14757 whole entry): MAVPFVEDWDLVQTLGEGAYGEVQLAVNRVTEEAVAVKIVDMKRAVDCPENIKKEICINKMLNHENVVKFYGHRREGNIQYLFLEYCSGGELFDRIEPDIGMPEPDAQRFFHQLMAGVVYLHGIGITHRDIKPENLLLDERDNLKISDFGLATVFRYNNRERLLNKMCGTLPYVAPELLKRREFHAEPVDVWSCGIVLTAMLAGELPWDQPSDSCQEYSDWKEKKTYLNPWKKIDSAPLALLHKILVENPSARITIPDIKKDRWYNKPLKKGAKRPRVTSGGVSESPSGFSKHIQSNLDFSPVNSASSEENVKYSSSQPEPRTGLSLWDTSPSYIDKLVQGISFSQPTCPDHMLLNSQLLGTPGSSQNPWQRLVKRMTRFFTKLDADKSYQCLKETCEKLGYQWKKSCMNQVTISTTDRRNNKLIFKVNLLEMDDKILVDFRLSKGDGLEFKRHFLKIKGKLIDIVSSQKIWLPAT

[19] = tested on: A-375; assay: Cell cycle arrest in human A375 cells assessed as accumulation at sub-G1 phase at 10 uM after 48 hrs by FACS flow cytometric analysis (reference value: 2.17%); format: functional
[20] = species on record: Rattus norvegicus; assay: Inhibition of rat AMPK assessed as residual activity at 10 uM relative to control
[21] = target: Rho-associated protein kinase 2 (Rattus norvegicus) (UniProt Q62868); assay: Inhibition of rat ROCK2 assessed as residual activity at 10 uM relative to control
[22] = tested on: A-375; assay: Cell cycle arrest in human A375 cells assessed as accumulation at G0-G1 phase at 80 uM after 48 hrs by FACS flow cytometric analysis (reference value: 55.4%); format: functional
[23] = tested on: A-375; assay: Cell cycle arrest in human A375 cells assessed as accumulation at G0-G1 phase at 10 uM after 48 hrs by FACS flow cytometric analysis (reference value: 55.4%); format: functional
[24] = target: Mitogen-activated protein kinase 14 (Homo sapiens, UniProt Q16539); assay: Inhibition of human p38alpha MAPK in presence of 50 uM ATP; settings: read-out: IC50
Mitogen-activated protein kinase 14, sequence (Q16539 whole entry): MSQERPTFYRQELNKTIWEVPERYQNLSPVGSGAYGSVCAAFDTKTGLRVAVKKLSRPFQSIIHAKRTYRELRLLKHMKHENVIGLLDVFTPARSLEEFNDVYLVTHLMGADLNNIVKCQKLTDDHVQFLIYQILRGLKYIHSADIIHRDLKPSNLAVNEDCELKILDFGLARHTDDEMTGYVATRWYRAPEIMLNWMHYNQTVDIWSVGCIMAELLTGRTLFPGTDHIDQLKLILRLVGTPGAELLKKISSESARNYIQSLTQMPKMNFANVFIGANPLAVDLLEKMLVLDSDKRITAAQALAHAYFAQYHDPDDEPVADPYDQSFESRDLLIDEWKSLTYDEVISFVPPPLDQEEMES

[25] = target: Dual specificity tyrosine-phosphorylation-regulated kinase 1A (Rattus norvegicus) (UniProt Q63470); assay: Inhibition of rat DYRK1alpha assessed as residual activity at 10 uM relative to control
[26] = target: Casein kinase I isoform delta (Rattus norvegicus, UniProt Q06486); assay: Inhibition of rat CK1delta in presence of 20 uM ATP
Casein kinase I isoform delta, sequence (Q06486 whole entry, canonical isoform): as the sequence (Q06486 whole entry, looked up, canonical isoform) above

[27] = target: Proto-oncogene tyrosine-protein kinase Src (Homo sapiens) (UniProt P12931); assay: Inhibition of human SRC assessed as residual activity at 10 uM relative to control
[28] = tested on: A-375; assay: Cell cycle arrest in human A375 cells assessed as accumulation at G0-G1 phase at 20 uM after 48 hrs by FACS flow cytometric analysis (reference value: 55.4%); format: functional
[29] = tested on: A-375; assay: Cell cycle arrest in human A375 cells assessed as accumulation at G2-M phase at 20 uM after 48 hrs by FACS flow cytometric analysis (reference value: 17.3%); format: functional
[30] = tested on: A-375; assay: Cell cycle arrest in human A375 cells assessed as accumulation at G0-G1 phase at 40 uM after 48 hrs by FACS flow cytometric analysis (reference value: 55.4%); format: functional
[31] = tested on: A-375; assay: Cell cycle arrest in human A375 cells assessed as accumulation at S phase at 40 uM after 48 hrs by FACS flow cytometric analysis (reference value: 25.1%); format: functional
[32] = tested on: A-375; assay: Cell cycle arrest in human A375 cells assessed as accumulation at sub-G1 phase at 20 uM after 48 hrs by FACS flow cytometric analysis (reference value: 2.17%); format: functional
[33] = tested on: A-375; assay: Cytotoxicity against human A375 cells assessed as reduction in cell number at 10 to 40 uM after 24 hrs by light microscopic analysis relative to control; format: functional, cell-based
[34] = tested on: A-375; assay: Cell cycle arrest in human A375 cells assessed as accumulation at S phase at 80 uM after 48 hrs by FACS flow cytometric analysis (reference value: 25.1%); format: functional
[35] = tested on: A-375; assay: Cell cycle arrest in human A375 cells assessed as accumulation at S phase at 20 uM after 48 hrs by FACS flow cytometric analysis (reference value: 25.1%); format: functional
[36] = tested on: A-375; assay: Cell cycle arrest in human A375 cells assessed as accumulation at sub-G1 phase at 80 uM after 48 hrs by FACS flow cytometric analysis (reference value: 2.17%); format: functional
[37] = tested on: A-375; assay: Cell cycle arrest in human A375 cells assessed as accumulation at sub-G1 phase at 40 uM after 48 hrs by FACS flow cytometric analysis (reference value: 2.17%); format: functional
[38] = tested on: A-375; assay: Cell cycle arrest in human A375 cells assessed as accumulation at G2-M phase at 80 uM after 48 hrs by FACS flow cytometric analysis (reference value: 17.3%); format: functional
[39] = tested on: A-375; assay: Cell cycle arrest in human A375 cells assessed as accumulation at S phase at 10 uM after 48 hrs by FACS flow cytometric analysis (reference value: 25.1%); format: functional

O=C(Nc1n[nH]c2ncc(-c3cccnc3)cc12)C1CCCC1
inhibition [1]: Active
inhibition [2]: inactive
inhibition [3]: Active
inhibition [4]: Active

COc1cc(OC)c(C=C2C(=O)Nc3ccccc32)c(OC)c1
Activity [5]: 73%
Activity [6]: 78%
Activity [7]: 82%
Activity [8]: 86%
Activity [9]: 83%
Activity [10]: 70%
Activity [11]: 9%
Activity [12]: 71%

NC(=O)c1ccc(-c2nc(-c3ccc4c(c3)OCCO4)c(-c3ccccn3)[nH]2)cc1
Activity [13]: 4%
Activity [14]: 9.66%
Activity [15]: 113%
Activity [16]: 13.7%
Activity [17]: 93%
IC50 [18]: Not Active
Activity [19]: 3.92%
Activity [20]: 98%
Activity [21]: 105%
Activity [22]: 52.9%
Activity [23]: 55.4%
IC50 [24]: 4150 nM
Activity [25]: 86%
IC50 [26]: 353 nM
Activity [27]: 82%
Activity [28]: 41.9%
Activity [29]: 18.8%
Activity [30]: 43.1%
Activity [31]: 24.3%
Activity [32]: 6.96%
Activity [33]: Active
Activity [34]: 9.33%
Activity [35]: 31.9%
Activity [36]: 32.7%
Activity [37]: 22.3%
Activity [38]: 4.9%
Activity [39]: 26.6%
